Source: PMC7231327 (2020)
One block for each molecule: values may come before it.

What was measured:
[1] = system: H-DNA 1 (DNA, aptamer) GCGGGCGGTTGTATAGCGGTTTTTTCTCACACGAATTCATCTGAC; experiment: competitive fluorescent lateral flow strip; conditions: for Cross-reactivity: T-DNA competes, [AMP] at IC50/[M] at IC50, AMP = 100
[2] = system: H-DNA 1' (DNA, aptamer) GCGGGCGGTTGTATAGCGGTTTTTTCTCACACGAATTCATCTGAC; experiment: competitive fluorescent lateral flow strip; conditions: T-DNA competes on T line; AMP 150 and 200 ng/L; slight signal change

SMILES: CC1(C)S[C@@H]2[C@H](NC(=O)Cc3ccccc3)C(=O)N2[C@H]1C(=O)O
Cross-reactivity ([1]; n = 3, RSD 3.56%): 7.40%

SMILES: CN(C)[C@@H]1C(=O)C(C(N)=O)=C(O)[C@@]2(O)C(=O)C3=C(O)c4c(O)cccc4[C@@](C)(O)[C@H]3[C@H](O)[C@@H]12
Cross-reactivity ([1]; n = 3, RSD 2.76%): 0.88%

SMILES: NC[C@H]1O[C@H](O[C@H]2[C@H](O)[C@@H](O[C@H]3O[C@H](CO)[C@@H](O)[C@H](N)[C@H]3O)[C@H](N)C[C@@H]2N)[C@H](O)[C@@H](O)[C@@H]1O
Cross-reactivity ([1]; n = 3, RSD 3.89%): 5.53%

SMILES: O=C(N[C@H](CO)[C@H](O)c1ccc([N+](=O)[O-])cc1)C(Cl)Cl
Cross-reactivity ([1]; n = 3, RSD 4.34%): 6.60%

More lines, now with the values ahead:

binding ([1]; T-DNA (complementary strand) competes on T line, AMP 50-300 ng/L): yes
binding [2]: weak
SMILES: CC1(C)S[C@@H]2[C@H](NC(=O)[C@H](N)c3ccccc3)C(=O)N2[C@H]1C(=O)O

Cross-reactivity ([1]; n = 3, RSD 2.34%): 0.67%
SMILES: CN(C)[C@@H]1C(=O)C(C(N)=O)=C(O)[C@@]2(O)C(=O)C3=C(O)c4c(O)cccc4[C@@](C)(O)[C@H]3C[C@@H]12
